Data: patent US20050037478A1, “Crystal structure of glutamate racemase (MurI)” (priority 2002, published 2005)

Legend:
[1] = target: T1, H. pylori MurI A75T mutant (Helicobacter pylori, UniProt Q9ZLT0, A75T); conditions: reverse direction
T1 sequence (Q9ZLT0 1-255 A75T): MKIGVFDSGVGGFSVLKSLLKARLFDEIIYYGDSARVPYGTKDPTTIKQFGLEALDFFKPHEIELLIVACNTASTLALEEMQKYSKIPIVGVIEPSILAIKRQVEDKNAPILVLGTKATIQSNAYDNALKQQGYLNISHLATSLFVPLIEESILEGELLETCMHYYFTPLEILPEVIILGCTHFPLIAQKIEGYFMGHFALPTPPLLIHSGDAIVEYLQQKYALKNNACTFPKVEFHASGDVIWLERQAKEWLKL

[2] = target: recombinant H. pylori MurI (Helicobacter pylori, UniProt Q9ZLT0)
Text: Kinetic constant for recombinant MurI were estimated by assaying its activity at various concentrations of protein and D-glutamic acid as described above.

[3] = tested on: MurI resistance mutant proteins (A75T or E151K); assay: Kinetic analysis of MurI resistance mutant proteins, forward direction (L-Glu→D-Glu); assay type: biochemical, H. pylori
Experimental: In this assay, the conversion of L-Glutamate to D-Glutamate was monitored spectrophotometrically through a two enzyme coupling system wherein, the production of D-glutamate is coupled to the incorporation of D-Glutamate into UDP-MurNAc-Ala-D-Glu by recombinant E. faecalis MurD, with concomitant hydrolysis of ATP to ADP and inorganic phosphate. […] Initial rates of reaction were determined by following the increase of absorbance at 360 nm in a 100 μL reaction volume containing 85 μL of reaction buffer (58 mM Tris, pH=8.0, 23.5 mM ammonium acetate, 23.5 mM magnesium acetate, 2.94 mM dithiothreitol, 2.94 mM adenosine triphosphate, 0.47 mM UDP-MurNAc-Ala, 0.47 mM MESG, 1.17 units./mL PNP, 16 μg/mL E. faecalis MurD, and 30 nM MurI) and 15 μL of L-Glutamate stock (0.05-10 mM). The increase in optical density at 360 nm was measured continuously in at 96 well microtitre plate in a Microplate Spectrophotometer System (Molecular Devices, SpectraMAX 250).

[4] = target: the molecule itself; assay: X-ray crystallography, homodimer
[5] = target: the molecule itself; assay: X-ray crystallography (molecular replacement), homodimer

## N[C@H](CCC(=O)O)C(=O)O [D-glutamate]
[1]; mutant enzyme vs wild-type
  shift of inhibition constant relative to the wild-type enzyme: > 120 fold
[1]; mutant enzyme
  substrate inhibition by D-glutamate: exhibits substrate inhibition
[2]
  substrate inhibition: Severe substrate inhibition
[2]; read-out: Km for D-glutamate
  Km: 100 µM

## N[C@@H](CCC(=O)O)C(=O)O [L-Glu, L-glutamate]
[3]
  elevation of KM for L-Glu relative to the native enzyme: 10 fold
  substrate inhibition by L-Glu: no substrate inhibition

B1: Enterococcus faecalis glutamate racemase (MurI), monomer chain of the homodimer (enzyme)
chain: MSNQEAIGLIDSGVGGLTVLKEALKQLPNERLIYLGDTARCPYGPRPAEQVVQFTWEMADFLLKKRIKMLVIACNTATAVALEEIKAALPIPVVGVILPGARAAVKVTKNNKIGVIGTLGTIKSASYEIAIKSKAPAIEVTSLACPKFVPIVESNQYRSSVAKKIVAETLQALQLKGLDTLILGCTHYPLLRPVIQNVMGSHVTLIDSGAETVGEVSMLLDYFDIAHTPEAPTQPHEFYTTGSAKMFEEIASSWLGIENLKAQQIHLGGNEND
notes: also called E. faecalis MurI; E. faecalis glutamate racemase
[4]
  binding result: binds

B2: Helicobacter pylori glutamate racemase (MurI), monomer chain of the homodimer (enzyme)
chain: MKIGVFDSGVGGFSVLKSLLKARLFDEIIYYGDSARVPYGTKDPTTIKQFGLEALDFFKPHEIELLIVACNTASALALEEMQKYSKIPIVGVIEPSILAIKRQVEDKNAPILVLGTKATIQSNAYDNALKQQGYLNISHLATSLFVPLIEESILEGELLETCMHYYFTPLEILPEVIILGCTHFPLIAQKIEGYFMGHFALPTPPLLIHSGDAIVEYLQQKYALKNNACTFPKVEFHASGDVIWLERQAKEWLKL
notes: also called H. pylori MurI; H. pylori glutamate racemase
[4]
  binding result: binds

B3: Enterococcus faecium glutamate racemase (MurI), monomer chain of the homodimer (enzyme)
chain: MIRLTDNRPIGFIDSGVGGLTVVKEALKQLPNENILFVGDTARCPYGPRPAEQVIQYTWEMTDYLVEQGIKMLVIACNTATAVALEEIKAALSIPVIGVILPGTRAAVKKTQNKQVGIIGTIGTVKSQAYEKALKEKVPELTVTSLACPKFVSVVESNEYHSSVAKKIVAETLAPLTTKKIDTLILGCTHYPLLRPIIQNVMGENVQLIDSGAETVGEVSMLLDYFNLSNSPQNGRTLCQFYTTGSAKLFEEIAEDWLGIGHLNVEHIELGGK
notes: also called E. faecium MurI; EF2
[5]
  binding result: binds
